Data reported in patent US20070149535A1, “Protein kinase inhibitors” (ONCALIS AG, priority 2004, published 2007).

Key:
Assay in all cases: Yeast growth assay, specificity profiling
Type in all cases: cell-based
Parameters in all cases: key: “−” indicates no growth restoration i.e. no activity against the particular kinase; “+”, “++”, and “+++” indicate activity detected by restoration of growth, classified into three categories of potency; “+”, “++”, and “+++” indicate activity detected by restoration of growth, classified into three categories of potency; “+”, “++”, and “+++” indicate activity detected by restoration of growth, classified into three categories of potency
Details in all cases: 7 concentrations between 0.2 and 100 μM
VEGFR2 = biological target: T1, VEGFR2 (Homo sapiens, UniProt P35968)
T1 construct: expressed in transfected cells; host or cells: yeast
Protocol: (§1) Specificity Profiling: Yeast Growth Assay
(§2) The yeast growth assay was performed as described in “Method for the identification and/or validation of receptor tyrosine kinase inhibitors” PCT/CH03/00694 (2004/10/24), section “Modes for Carrying out the Invention, Experiment 1 and Experiment 2.
(§3) Briefly, yeast cells carrying plasmids with the RTK of interest were grown in glucose containing medium (repressing expression). The cultures were diluted into galactose containing medium, which induces the expression of the kinase. Expression of the kinase inhibits growth of the yeast cells, which allows for positive selection of kinase inhibitors restoring growth of cells. Compounds were titrated at 7 concentrations between 0.2 and 100 μM.
(§4) Specificity profiling of compounds, using the yeast growth assay method described above. “−” indicates no growth restoration i.e. no activity against the particular kinase, “+”, “++”, and “+++” indicate activity detected by restoration of growth, classified into three categories of potency according to the maximal level of growth restoration reached and the concentration at which the maximal growth restoration is reached.

IGF-1R = biological target: T2, IGF-1R (Homo sapiens, UniProt P08069)
T2 construct: expressed in transfected cells; host or cells: yeast
Protocol: as §1, §2, §3, §4

RET = biological target: T3, RET (Homo sapiens, UniProt P07949)
T3 construct: expressed in transfected cells; host or cells: yeast
Protocol: as §1, §2, §3, §4

TEK = biological target: T4, TEK (Homo sapiens, UniProt Q02763)
T4 construct: expressed in transfected cells; host or cells: yeast
Protocol: as §1, §2, §3, §4

EphB4 = biological target: T5, EphB4 (Homo sapiens, UniProt P54760)
T5 construct: expressed in transfected cells; host or cells: yeast
T5 sequence (P54760 16-987): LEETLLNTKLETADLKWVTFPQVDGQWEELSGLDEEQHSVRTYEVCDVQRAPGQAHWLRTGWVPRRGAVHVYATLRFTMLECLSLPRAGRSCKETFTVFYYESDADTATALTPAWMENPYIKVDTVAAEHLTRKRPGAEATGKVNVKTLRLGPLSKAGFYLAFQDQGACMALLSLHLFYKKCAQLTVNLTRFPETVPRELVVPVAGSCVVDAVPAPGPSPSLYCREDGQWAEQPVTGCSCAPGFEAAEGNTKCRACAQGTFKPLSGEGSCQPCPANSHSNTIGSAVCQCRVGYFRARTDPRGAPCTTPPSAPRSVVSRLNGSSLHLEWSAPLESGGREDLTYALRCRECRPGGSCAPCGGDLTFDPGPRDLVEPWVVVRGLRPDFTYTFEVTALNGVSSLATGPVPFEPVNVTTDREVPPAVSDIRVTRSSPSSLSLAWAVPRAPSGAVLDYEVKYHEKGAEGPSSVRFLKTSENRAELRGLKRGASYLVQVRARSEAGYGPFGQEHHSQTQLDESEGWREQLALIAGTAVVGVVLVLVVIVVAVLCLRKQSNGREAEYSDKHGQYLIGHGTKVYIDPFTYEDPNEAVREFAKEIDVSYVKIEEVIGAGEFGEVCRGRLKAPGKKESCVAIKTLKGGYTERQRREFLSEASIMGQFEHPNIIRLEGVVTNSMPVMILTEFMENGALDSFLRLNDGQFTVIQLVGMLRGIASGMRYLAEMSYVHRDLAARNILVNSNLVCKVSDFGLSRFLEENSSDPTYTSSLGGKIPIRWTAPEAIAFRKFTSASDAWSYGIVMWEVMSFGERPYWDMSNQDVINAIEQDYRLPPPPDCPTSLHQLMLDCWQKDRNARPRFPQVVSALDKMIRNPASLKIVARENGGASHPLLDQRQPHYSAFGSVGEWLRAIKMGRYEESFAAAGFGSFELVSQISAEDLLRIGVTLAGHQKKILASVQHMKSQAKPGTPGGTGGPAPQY
Protocol: as §1, §2, §3, §4

VEGFR1 = biological target: T6, VEGFR1 (Homo sapiens, UniProt P17948)
T6 construct: expressed in transfected cells; host or cells: yeast
Protocol: as §1, §2, §3, §4

InsR = biological target: T7, InsR (Homo sapiens, UniProt P06213)
T7 construct: expressed in transfected cells; host or cells: yeast
Protocol: as §1, §2, §3, §4

T2 sequence (P08069 31-1367): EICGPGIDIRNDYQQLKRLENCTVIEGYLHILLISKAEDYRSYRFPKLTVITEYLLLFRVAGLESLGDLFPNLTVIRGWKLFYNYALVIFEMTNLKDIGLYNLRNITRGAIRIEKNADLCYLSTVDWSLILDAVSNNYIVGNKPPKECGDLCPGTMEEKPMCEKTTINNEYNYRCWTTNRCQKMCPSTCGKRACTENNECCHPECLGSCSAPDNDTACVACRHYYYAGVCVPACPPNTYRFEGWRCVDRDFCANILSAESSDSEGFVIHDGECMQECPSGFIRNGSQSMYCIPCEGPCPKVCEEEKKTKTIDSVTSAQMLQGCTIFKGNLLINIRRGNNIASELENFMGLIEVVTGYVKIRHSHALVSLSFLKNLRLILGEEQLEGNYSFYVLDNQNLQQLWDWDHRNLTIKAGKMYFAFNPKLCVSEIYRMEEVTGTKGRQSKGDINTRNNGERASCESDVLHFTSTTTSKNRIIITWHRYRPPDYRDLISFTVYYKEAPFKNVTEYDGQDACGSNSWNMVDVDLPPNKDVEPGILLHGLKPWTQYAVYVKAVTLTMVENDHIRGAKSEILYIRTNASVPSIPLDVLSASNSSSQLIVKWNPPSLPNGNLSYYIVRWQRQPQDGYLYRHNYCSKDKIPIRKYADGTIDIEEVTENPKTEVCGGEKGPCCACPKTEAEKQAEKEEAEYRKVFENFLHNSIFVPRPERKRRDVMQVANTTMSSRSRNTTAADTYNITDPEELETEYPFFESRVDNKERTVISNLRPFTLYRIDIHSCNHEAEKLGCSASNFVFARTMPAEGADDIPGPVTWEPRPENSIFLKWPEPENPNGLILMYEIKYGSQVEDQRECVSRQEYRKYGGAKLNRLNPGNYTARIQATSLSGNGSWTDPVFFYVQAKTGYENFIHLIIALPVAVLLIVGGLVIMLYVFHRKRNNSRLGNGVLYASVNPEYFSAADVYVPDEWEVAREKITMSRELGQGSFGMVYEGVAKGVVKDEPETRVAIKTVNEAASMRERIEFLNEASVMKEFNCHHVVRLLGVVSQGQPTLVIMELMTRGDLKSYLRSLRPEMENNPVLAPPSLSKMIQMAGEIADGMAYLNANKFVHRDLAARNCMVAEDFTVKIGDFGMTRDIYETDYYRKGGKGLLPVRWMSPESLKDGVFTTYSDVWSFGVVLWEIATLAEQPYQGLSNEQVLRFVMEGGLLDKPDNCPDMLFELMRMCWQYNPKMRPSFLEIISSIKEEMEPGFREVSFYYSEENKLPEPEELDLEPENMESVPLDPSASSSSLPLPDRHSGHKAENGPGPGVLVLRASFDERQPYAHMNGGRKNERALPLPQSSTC
T7 sequence (P06213 28-1382): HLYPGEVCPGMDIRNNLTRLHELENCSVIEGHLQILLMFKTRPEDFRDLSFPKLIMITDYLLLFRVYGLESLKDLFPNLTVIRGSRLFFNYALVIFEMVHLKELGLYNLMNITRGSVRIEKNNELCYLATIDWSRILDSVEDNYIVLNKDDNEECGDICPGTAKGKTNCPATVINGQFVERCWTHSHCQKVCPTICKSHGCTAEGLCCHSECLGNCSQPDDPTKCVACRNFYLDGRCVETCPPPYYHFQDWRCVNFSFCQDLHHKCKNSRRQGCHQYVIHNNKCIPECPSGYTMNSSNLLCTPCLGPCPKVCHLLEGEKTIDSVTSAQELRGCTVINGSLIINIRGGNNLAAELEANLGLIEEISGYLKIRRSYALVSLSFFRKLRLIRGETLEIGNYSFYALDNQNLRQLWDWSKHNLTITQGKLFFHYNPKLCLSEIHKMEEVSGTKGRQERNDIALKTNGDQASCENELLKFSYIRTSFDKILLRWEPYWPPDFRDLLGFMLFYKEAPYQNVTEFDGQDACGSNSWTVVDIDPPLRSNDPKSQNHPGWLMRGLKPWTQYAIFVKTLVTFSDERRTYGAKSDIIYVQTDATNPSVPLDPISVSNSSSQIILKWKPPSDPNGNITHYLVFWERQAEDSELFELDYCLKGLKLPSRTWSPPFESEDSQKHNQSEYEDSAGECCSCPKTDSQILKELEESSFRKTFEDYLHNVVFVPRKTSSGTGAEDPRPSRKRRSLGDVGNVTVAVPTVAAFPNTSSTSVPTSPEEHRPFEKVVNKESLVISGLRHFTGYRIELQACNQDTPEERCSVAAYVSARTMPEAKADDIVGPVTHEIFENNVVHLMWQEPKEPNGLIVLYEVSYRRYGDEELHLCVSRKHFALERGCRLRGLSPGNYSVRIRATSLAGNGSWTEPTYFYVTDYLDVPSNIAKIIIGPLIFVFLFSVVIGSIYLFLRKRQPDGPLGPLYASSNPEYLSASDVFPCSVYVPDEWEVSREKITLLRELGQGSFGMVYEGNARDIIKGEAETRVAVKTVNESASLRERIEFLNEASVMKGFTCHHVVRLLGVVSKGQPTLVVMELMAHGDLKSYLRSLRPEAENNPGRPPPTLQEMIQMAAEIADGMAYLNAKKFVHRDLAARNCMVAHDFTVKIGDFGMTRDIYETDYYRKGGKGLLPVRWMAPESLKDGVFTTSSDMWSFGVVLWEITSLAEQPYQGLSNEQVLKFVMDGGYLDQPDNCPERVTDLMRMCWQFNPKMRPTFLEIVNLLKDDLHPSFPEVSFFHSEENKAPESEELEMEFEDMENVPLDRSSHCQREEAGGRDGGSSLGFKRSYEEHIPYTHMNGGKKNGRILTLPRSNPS
T6 sequence (P17948 27-1338): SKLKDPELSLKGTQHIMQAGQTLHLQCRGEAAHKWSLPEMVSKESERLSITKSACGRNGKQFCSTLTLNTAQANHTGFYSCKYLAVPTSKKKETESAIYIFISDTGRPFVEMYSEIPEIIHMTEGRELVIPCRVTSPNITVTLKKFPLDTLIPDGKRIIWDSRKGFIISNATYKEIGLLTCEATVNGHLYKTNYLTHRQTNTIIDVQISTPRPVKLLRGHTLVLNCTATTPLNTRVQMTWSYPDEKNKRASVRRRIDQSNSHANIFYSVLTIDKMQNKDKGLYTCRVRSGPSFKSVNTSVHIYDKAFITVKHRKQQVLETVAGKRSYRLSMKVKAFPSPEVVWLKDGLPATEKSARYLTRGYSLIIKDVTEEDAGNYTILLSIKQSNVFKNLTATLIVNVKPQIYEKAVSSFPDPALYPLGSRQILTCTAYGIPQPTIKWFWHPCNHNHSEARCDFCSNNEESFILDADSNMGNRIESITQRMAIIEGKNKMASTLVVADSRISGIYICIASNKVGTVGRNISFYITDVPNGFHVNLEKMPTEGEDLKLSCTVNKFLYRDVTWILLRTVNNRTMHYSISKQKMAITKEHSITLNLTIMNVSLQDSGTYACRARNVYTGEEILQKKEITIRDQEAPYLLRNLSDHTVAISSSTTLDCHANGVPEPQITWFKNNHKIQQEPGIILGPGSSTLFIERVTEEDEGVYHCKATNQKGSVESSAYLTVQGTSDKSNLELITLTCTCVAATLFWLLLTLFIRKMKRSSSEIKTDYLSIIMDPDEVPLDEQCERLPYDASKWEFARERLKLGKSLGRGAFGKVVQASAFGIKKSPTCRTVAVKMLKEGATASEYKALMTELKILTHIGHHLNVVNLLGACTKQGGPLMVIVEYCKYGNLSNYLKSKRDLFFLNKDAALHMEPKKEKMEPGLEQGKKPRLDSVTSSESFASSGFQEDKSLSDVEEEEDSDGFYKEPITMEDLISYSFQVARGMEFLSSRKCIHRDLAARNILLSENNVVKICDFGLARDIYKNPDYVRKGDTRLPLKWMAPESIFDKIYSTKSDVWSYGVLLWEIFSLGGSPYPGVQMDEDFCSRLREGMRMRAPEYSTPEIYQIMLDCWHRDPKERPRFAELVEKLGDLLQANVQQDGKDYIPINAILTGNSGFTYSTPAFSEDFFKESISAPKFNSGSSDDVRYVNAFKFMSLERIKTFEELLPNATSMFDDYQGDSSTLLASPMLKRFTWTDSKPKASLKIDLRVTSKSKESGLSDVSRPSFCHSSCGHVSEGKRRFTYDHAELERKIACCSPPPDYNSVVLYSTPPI
T3 sequence (P07949 29-1114): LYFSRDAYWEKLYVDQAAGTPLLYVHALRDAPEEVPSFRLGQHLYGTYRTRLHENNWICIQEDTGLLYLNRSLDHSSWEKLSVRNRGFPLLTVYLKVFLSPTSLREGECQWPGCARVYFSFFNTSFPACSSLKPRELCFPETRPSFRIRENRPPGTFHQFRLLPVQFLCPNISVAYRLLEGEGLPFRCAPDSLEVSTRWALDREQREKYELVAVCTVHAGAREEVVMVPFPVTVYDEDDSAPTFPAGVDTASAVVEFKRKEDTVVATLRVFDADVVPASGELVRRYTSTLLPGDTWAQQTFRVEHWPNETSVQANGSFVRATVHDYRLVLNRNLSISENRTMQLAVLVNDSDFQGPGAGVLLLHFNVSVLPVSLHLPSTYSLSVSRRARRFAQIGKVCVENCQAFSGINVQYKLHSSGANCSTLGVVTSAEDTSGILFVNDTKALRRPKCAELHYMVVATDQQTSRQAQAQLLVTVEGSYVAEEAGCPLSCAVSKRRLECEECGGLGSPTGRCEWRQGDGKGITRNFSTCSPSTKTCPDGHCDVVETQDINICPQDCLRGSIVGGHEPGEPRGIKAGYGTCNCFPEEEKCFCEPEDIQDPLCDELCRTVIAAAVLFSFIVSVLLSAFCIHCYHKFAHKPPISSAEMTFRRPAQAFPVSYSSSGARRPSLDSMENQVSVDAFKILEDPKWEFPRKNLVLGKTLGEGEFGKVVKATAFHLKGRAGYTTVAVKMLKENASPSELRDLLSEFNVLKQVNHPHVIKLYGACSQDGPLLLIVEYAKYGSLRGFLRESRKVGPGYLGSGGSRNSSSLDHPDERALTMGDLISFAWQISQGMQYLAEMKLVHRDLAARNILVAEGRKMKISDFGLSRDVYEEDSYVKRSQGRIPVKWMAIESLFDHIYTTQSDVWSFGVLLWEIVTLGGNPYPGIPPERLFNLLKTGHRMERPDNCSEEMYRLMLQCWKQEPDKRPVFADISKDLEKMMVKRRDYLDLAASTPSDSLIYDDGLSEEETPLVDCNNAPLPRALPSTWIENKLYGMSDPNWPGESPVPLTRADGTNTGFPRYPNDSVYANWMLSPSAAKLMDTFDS

| VEGFR2 growth restoration (VEGFR2) | IGF-1R growth restoration (IGF-1R) | RET growth restoration (RET) | TEK growth restoration (TEK) | EphB4 growth restoration (EphB4) | VEGFR1 growth restoration (VEGFR1) | InsR growth restoration (InsR) | Structure (SMILES) |
| --- | --- | --- | --- | --- | --- | --- | --- |
| − | − | − | − | + | − | − | CC(C)c1nc2cnccn2c1Nc1cccc(Cl)c1 [compound 12, (3-Chloro-phenyl)-(2-isopropyl-imidazo[1,2-a]pyrazin-3-yl)-amine] |
| − | − | − | − | − | − | − | Brc1cccc(Nc2c(-c3ccccc3)nc3cnccn23)c1 [compound 14, (3-Bromo-phenyl)-(2-phenyl-imidazo[1,2-a]pyrazin-3-yl)-amine] |
| − | − | − | − | ++ | − | − | CC(=O)Nc1ccc(-c2nc3cnccn3c2Nc2cccc(Cl)c2)cc1 [compound 8, N-{4-[3-(3-Chloro-phenylamino)-imidazo[1,2-a]pyrazin-2-yl]-phenyl}-acetamide] |
| − | − | + | − | +++ | − | − | Cc1nccn2c(Nc3ccccc3)c(-c3ccccc3)nc12 [compound 39, (8-Methyl-2-phenyl-imidazo[1,2-a]pyrazin-3-yl)-phenyl-amine] |
| − | − | + | − | ++ | − | − | c1ccc(Nc2c(-c3ccccc3)nc3cnccn23)cc1 [compound 23, Phenyl-(2-phenyl-imidazo[1,2-a]pyrazin-3-yl)-amine] |
| − | − | + − | − | + | − | − | COc1cccc(-c2nc3cnccn3c2Nc2cccc(Cl)c2)c1 [compound 7, (3-Chloro-phenyl)-[2-(3-methoxy-phenyl)-imidazo[1,2-a]pyrazin-3-yl]-amine] |
| − | − | − | − | − | − | − | CNc1nccn2c(Nc3cccc(Cl)c3)c(-c3ccccc3)nc12 [compound 20, N′3-(3-Chloro-phenyl)-N′8-methyl-2-phenyl-imidazo[1,2-a]pyrazine-3,8-diamine] |
| − | − | − | − | +++ | − | − | CC(=O)Nc1ccc(-c2nc3c(C)nccn3c2Nc2cccc(Cl)c2)cc1 [compound 33, N-{4-[3-(3-Chloro-phenylamino)-8-methyl-imidazo[1,2-a]pyrazin-2-yl]-phenyl}-acetamide] |
| − | − | − | − | ++ | − | − | Cc1nccn2c(Nc3cccc(Cl)c3)c(-c3ccccc3)nc12 [compound 3, (3-Chloro-phenyl)-(8-methyl-2-phenyl-imidazo[1,2-a]pyrazin-3-yl)-amine] |
| − | − | − | − | ++ | − | − | COc1cccc(-c2nc3c(C)nccn3c2Nc2cccc(C)c2)c1 [compound 42, [2-(3-Methoxy-phenyl)-8-methyl-imidazo[1,2-a]pyrazin-3-yl]-m-tolyl-amine] |
| − | − | − | − | ++ | + | + | c1ccc(Nc2c(-c3ccc(N4CCOCC4)cc3)nc3cnccn23)cc1 [compound 38, [2-(4-Morpholin-4-yl-phenyl)-imidazo[1,2-a]pyrazin-3-yl]-phenyl-amine] |
| − | − | + | − | + | − | − | Clc1cccc(Nc2c(-c3ccccc3)nc3cnccn23)c1 [compound 35, (3-Chloro-phenyl)-(2-phenyl-imidazo[1,2-a]pyrazin-3-yl)-amine] |
| − | − | − | − | +++ | − | − | Nc1ccc(-c2nc3cnccn3c2Nc2cccc(Cl)c2)cc1 [compound 10, [2-(4-Amino-phenyl)-imidazo[1,2-a]pyrazin-3-yl]-(3-chloro-phenyl)-amine] |
